# Patent publication US8889878B2, “Haloalky-substituted amides as insecticides and acaricides” (Bayer CropScience AG, priority 2009, dated 2014)
# Assay: logP by HPLC on reverse-phase column (EEC Directive 79/831 Annex V.A8)
# Format: physicochemical
# Conditions: HPLC-MS
# Experimental: The logP values reported in the above Tables and Preparation Examples were determined according to EEC Directive 79/831 Annex V.A8 by HPLC (High Performance Liquid Chromatography) on a reverse-phase column (C18). Temperature 43° C.
row,SMILES,logP
1,O=C(/C=C/c1ccc(NC(=O)c2cccnc2Cl)cc1)NC(c1cc(Cl)cc(Cl)c1)C(F)(F)F (stereo not drawn) [Ia-2],HPLC-MS: logP = 3.69; mass
2,CC(=O)Nc1ccc(/C=C/C(=O)NC(c2cccc(C(F)(F)F)c2)C(F)(F)F)cc1 (stereo not drawn) [Ia-3],HPLC-MS: logP = 2.95; mass
3,O=C(/C=C/c1cccc(NC(=O)C2CC2)c1)NC(c1cccc(C(F)(F)F)c1)C(F)(F)F (stereo not drawn) [Ia-4],HPLC-MS: logP = 3.42; mass
4,O=C(/C=C/c1ccc(NC(=O)CC(F)(F)F)cc1)NC(c1cccc(C(F)(F)F)c1)C(F)(F)F (stereo not drawn) [Ia-6],HPLC-MS: logP = 3.43; mass
5,O=C(/C=C/c1ccc(-n2cncn2)c([N+](=O)[O-])c1)NC(c1cccc(C(F)(F)F)c1)C(F)(F)F (stereo not drawn) [Ia-9],HPLC-MS: logP = 3.11; mass
6,N#Cc1cc(/C=C/C(=O)NC(c2cccc(C(F)(F)F)c2)C(F)(F)F)ccc1-n1cncn1 (stereo not drawn) [Ia-10],HPLC-MS: logP = 2.99; mass
7,Cc1cc(/C=C/C(=O)NC(c2cccc(C(F)(F)F)c2)C(F)(F)F)ccc1C(=O)NC1CC1 (stereo not drawn) [Ia-11],HPLC-MS: logP = 3.02; mass
8,Cc1cc(/C=C/C(=O)NC(c2cc(Cl)cc(Cl)c2)C(F)(F)F)ccc1C(=O)NC1CC1 (stereo not drawn) [Ia-12],HPLC-MS: logP = 3.33; mass
9,N#Cc1cc(/C=C/C(=O)NC(c2cccc(F)c2)C(F)(F)F)ccc1-n1cncn1 (stereo not drawn) [Ia-13],HPLC-MS: logP = 2.61; mass
10,N#Cc1cc(/C=C/C(=O)NC(c2ccc(C(F)(F)F)cc2)C(F)(F)F)ccc1-n1cncn1 (stereo not drawn) [Ia-14],HPLC-MS: logP = 3.08; mass
11,N#Cc1cc(/C=C/C(=O)NC(c2cc(Cl)cc(Cl)c2)C(F)(F)F)ccc1-n1cncn1 (stereo not drawn) [Ia-16],HPLC-MS: logP = 3.33; mass
12,Cc1cc(/C=C/C(=O)NC(c2cc(Cl)cc(Cl)c2)C(F)(F)F)ccc1C(=O)NCC(F)(F)F (stereo not drawn) [Ia-20],HPLC-MS: logP = 3.90; mass
13,COC(=O)c1ccc(/C=C/C(=O)NC(c2cccc(C(F)(F)F)c2)C(F)(F)F)cc1C (stereo not drawn) [Ia-26],HPLC-MS: logP = 4.09; mass
14,O=C(/C=C/c1ccc(C(=O)NCc2ccccn2)c(C(F)(F)F)c1)NC(c1cccc([N+](=O)[O-])c1)C(F)(F)F (stereo not drawn) [Ia-33],HPLC-MS: logP = 2.93; mass
15,O=C(/C=C/c1ccc(C(=O)NCc2ccccn2)c(C(F)(F)F)c1)NC(c1ccc([N+](=O)[O-])cc1)C(F)(F)F (stereo not drawn) [Ia-34],HPLC-MS: logP = 2.93; mass
16,O=C(/C=C/c1ccc(C(=O)NCc2ccccn2)c(C(F)(F)F)c1)NC(c1c(F)cccc1F)C(F)(F)F (stereo not drawn) [Ia-35],HPLC-MS: logP = 2.46; mass
17,O=C(/C=C/c1ccc(C(=O)NC2CC2)c(C(F)(F)F)c1)NC(c1c(F)cccc1F)C(F)(F)F (stereo not drawn) [Ia-38],HPLC-MS: logP = 2.89; mass
18,Cc1cc(/C=C/C(=O)NC(c2cc(Cl)cc(C(F)(F)F)c2)C(F)(F)F)ccc1C(=O)NC1CC1 (stereo not drawn) [Ia-39],HPLC-MS: logP = 3.47; mass
19,O=C(/C=C/c1ccc(C(=O)Nc2cccnc2)c(C(F)(F)F)c1)NC(c1cccc(C(F)(F)F)c1)C(F)(F)F (stereo not drawn) [Ia-53],HPLC-MS: logP = 2.76; mass
20,COC(=O)c1ccc(C(NC(=O)/C=C/c2ccc(C(=O)NC3CC3)c(C(F)(F)F)c2)C(F)(F)F)cc1C(F)(F)F (stereo not drawn) [Ia-81],HPLC-MS: logP = 3.09; mass
21,CCOC1(NC(=O)c2ccc(/C=C/C(=O)NC(c3cccc(C(F)(F)F)c3)C(F)(F)F)cc2C)CC1 (stereo not drawn) [Ia-85],HPLC-MS: logP = 3.27 mass
22,Cc1cc(/C=C/C(=O)NC(c2cccc(C(F)(F)F)c2)C(F)(F)F)ccc1C(=O)N(C)C1CC1 (stereo not drawn) [Ia-116],HPLC-MS: logP = 3.37 mass
23,O=C(/C=C/c1ccc(S(=O)(=O)NC2CC2)cc1)NC(c1cccc(C(F)(F)F)c1)C(F)(F)F (stereo not drawn) [Ia-117],HPLC-MS: logP = 3.33; mass
24,O=C(/C=C/c1ccc(C(=O)NC2CC2)c(Cl)c1)NC(c1cccc(C(F)(F)F)c1)C(F)(F)F (stereo not drawn) [Ia-118],HPLC-MS: logP = 3.24; mass
25,O=C(/C=C/c1ccc(C(=O)Nc2cccc(Cl)n2)c(C(F)(F)F)c1)NC(c1cccc(C(F)(F)F)c1)C(F)(F)F (stereo not drawn) [Ia-120],HPLC-MS: logP = 4.33; mass
26,O=C(/C=C/c1ccc(C(=O)NCc2ncccn2)c(Br)c1)NC(c1cccc(C(F)(F)F)c1)C(F)(F)F (stereo not drawn) [Ia-133],HPLC-MS: logP = 2.93; mass

row,SMILES,logP
1,CC(NC(=O)c1ccc(/C=C/C(=O)NC(c2cccc(C(F)(F)F)c2)C(F)(F)F)cc1C(F)(F)F)C1(Cl)CC1 (stereo not drawn) [Ia-171],HPLC-MS: logP = 4.18; mass
2,CC(CF)NC(=O)c1ccc(/C=C/C(=O)NC(c2cccc(C(F)(F)F)c2)C(F)(F)F)cc1Br (stereo not drawn) [Ia-173],HPLC-MS: logP = 3.35; mass
3,O=C(/C=C/c1ccc(C(=O)NCc2nccs2)c(Br)c1)NC(c1cccc(C(F)(F)F)c1)C(F)(F)F (stereo not drawn) [Ia-177],HPLC-MS: logP = 3.14; mass
4,CC(C)C(C#N)NC(=O)c1ccc(/C=C/C(=O)NC(c2cccc(C(F)(F)F)c2)C(F)(F)F)cc1Cl (stereo not drawn) [Ia-182],HPLC-MS: logP = 3.68; mass
5,O=C(/C=C/c1ccc(C(=O)Nc2nccs2)c(Cl)c1)NC(c1cccc(C(F)(F)F)c1)C(F)(F)F (stereo not drawn) [Ia-185],HPLC-MS: logP = 3.51; mass
6,Cn1ccc(CNC(=O)c2ccc(/C=C/C(=O)NC(c3cccc(C(F)(F)F)c3)C(F)(F)F)cc2Cl)n1 (stereo not drawn) [Ia-186],HPLC-MS: logP = 2.95; mass
7,O=C(/C=C/c1ccc(C(=O)Nc2cccnn2)c(Cl)c1)NC(c1cccc(C(F)(F)F)c1)C(F)(F)F (stereo not drawn) [Ia-217],HPLC-MS: logP = 3.29; mass
8,COC(=O)c1ccc(NC(=O)c2ccc(/C=C/C(=O)NC(c3cccc(C(F)(F)F)c3)C(F)(F)F)cc2Cl)nc1 (stereo not drawn) [Ia-218],HPLC-MS: logP = 3.92; mass
9,O=C(/C=C/c1ccc(C(=O)NC2C[S+]([O-])C2)c(C(F)(F)F)c1)NC(c1cccc(C(F)(F)F)c1)C(F)(F)F (stereo not drawn) [Ia-227],HPLC-MS: logP = 2.71; mass
10,O=C(/C=C/c1ccc(C(=O)Nc2ccc(Cl)nn2)c(Cl)c1)NC(c1cccc(C(F)(F)F)c1)C(F)(F)F (stereo not drawn) [Ia-228],HPLC-MS: logP = 3.7; mass
11,O=C(/C=C/c1ccc(C(=O)NC2CC2)c(C(F)(F)F)c1)NC(c1cccc(F)c1)C(F)(F)F (stereo not drawn) [Ia-230],HPLC-MS: logP = 2.95; mass
12,O=C(/C=C/c1ccc(C(=O)NC2CC2)c(C(F)(F)F)c1)NC(c1cccc(Cl)c1)C(F)(F)F (stereo not drawn) [Ia-231],HPLC-MS: logP = 3.22; mass
13,Cc1cccc(C(NC(=O)/C=C/c2ccc(C(=O)NC3CC3)c(C(F)(F)F)c2)C(F)(F)F)c1 (stereo not drawn) [Ia-232],HPLC-MS: logP = 3.17; mass
14,O=C(/C=C/c1ccc(C(=O)NC2CC2)cc1Cl)NC(c1cccc(C(F)(F)F)c1)C(F)(F)F (stereo not drawn) [Ia-233],HPLC-MS: logP = 3.46; mass
15,O=C(/C=C/c1ccc(C(=O)NC2CC2)cc1Cl)NC(c1cccc(Cl)c1)C(F)(F)F (stereo not drawn) [Ia-234],HPLC-MS: logP = 3.3; mass
16,O=C(/C=C/c1ccc(C(=O)NCc2ccc(F)cn2)c(Cl)c1)NC(c1cccc(C(F)(F)F)c1)C(F)(F)F (stereo not drawn) [Ia-236],HPLC-MS: logP = 3.15; mass
17,CCC(=O)NCc1ccc(/C=C/C(=O)NC(c2cccc(C(F)(F)F)c2)C(F)(F)F)cc1C(F)(F)F (stereo not drawn) [Ia-238],HPLC-MS: logP = 3.51; mass
18,O=C(/C=C/c1ccc(CNC(=O)C2CC2)c(C(F)(F)F)c1)NC(c1cccc(C(F)(F)F)c1)C(F)(F)F (stereo not drawn) [Ia-240],HPLC-MS: logP = 3.76; mass
19,CCC(=O)NCc1ccc(/C=C/C(=O)NC(c2cccc(C(F)(F)F)c2)C(F)(F)F)cc1 (stereo not drawn) [Ia-241],HPLC-MS: logP = 2.8; mass
20,CS(=O)(=O)c1cccc(C(NC(=O)/C=C/c2ccc(C(=O)NC3CC3)c(C(F)(F)F)c2)C(F)(F)F)c1 (stereo not drawn) [Ia-243],HPLC MS: logP = 2.31; mass
21,CS(=O)(=O)c1cccc(C(NC(=O)/C=C/c2ccc(C(=O)Nc3ccccn3)c(C(F)(F)F)c2)C(F)(F)F)c1 (stereo not drawn) [Ia-244],HPLC-MS: logP = 2.62; mass
22,CC(=O)NCc1ccc(/C=C/C(=O)NC(c2cccc([S+](C)[O-])c2)C(F)(F)F)cc1C(F)(F)F (stereo not drawn) [Ia-245],HPLC-MS: logP = 1.98; mass
23,O=C(/C=C/c1ccc(C(=O)Nc2ccccn2)c(C(F)(F)F)c1)NC(c1cccc(Cl)c1)C(F)(F)F (stereo not drawn) [Ia-246],HPLC-MS: logP = 3.37; mass
24,CC(=O)NCc1ccc(/C=C/C(=O)NC(c2cccc(C(F)(F)F)c2)C(F)(F)F)cc1C (stereo not drawn) [Ia-249],HPLC-MS: logP = 2.9; mass
25,Cc1cccnc1NC(=O)c1ccc(/C=C/C(=O)NC(c2cccc(C(F)(F)F)c2)C(F)(F)F)cc1C(F)(F)F (stereo not drawn) [Ia-255],HPLC-MS: logP = 3.19; mass

# Same assay, conditions: HPLC-MS; HPLC on reverse-phase column
row,SMILES,logP
1,CC1CC1NC(=O)c1ccc(C=CC(=O)NC(c2cccc(C(F)(F)F)c2)C(F)(F)F)cc1C(F)(F)F (stereo not drawn) [Ia-261],HPLC-MS: logP = 3.46; mass
2,O=C(/C=C/c1ccc(C(=O)NCC(=O)NCC(F)(F)F)c(C(F)(F)F)c1)NC(c1cccc(C(F)(F)F)c1)C(F)(F)F (stereo not drawn) [Ia-262],HPLC-MS: logP = 3.11; mass
3,O=C(/C=C/c1ccc(CNc2ccccn2)c(C(F)(F)F)c1)NC(c1cccc(C(F)(F)F)c1)C(F)(F)F (stereo not drawn) [Ia-263],HPLC-MS: logP = 2.2; mass
4,O=C(/C=C/c1ccc(CNc2cc(Cl)ccn2)cc1)NC(c1cccc(C(F)(F)F)c1)C(F)(F)F (stereo not drawn) [Ia-265],HPLC-MS: logP = 3.15; mass
5,O=C(/C=C/c1ccc(CNC(=O)c2ccsc2)c(C(F)(F)F)c1)NC(c1cccc(C(F)(F)F)c1)C(F)(F)F (stereo not drawn) [Ia-268],HPLC-MS: logP = 3.92; mass
6,O=C(/C=C/c1ccc(CNC(=O)C2COC(=O)C2)c(C(F)(F)F)c1)NC(c1cccc(C(F)(F)F)c1)C(F)(F)F (stereo not drawn) [Ia-269],HPLC-MS: logP = 3.34; mass

# Same assay, conditions: reverse-phase C18 HPLC column, pH 2.7, HPLC, C18 reverse phase, 43° C., acidic range pH 2.7, calibration with alkan-2-ones
row,SMILES,chromatographic logP
1,"CCOC(=O)c1cc2cc(C(=O)NC(c3cccc(C(F)(F)F)c3)C(F)(F)F)n(C)c2cc1Cl (stereo not drawn) [Ethyl 6-chloro-1-methyl-2-({2,2,2-trifluoro-1-[3-(trifluoromethyl)phenyl]ethyl}carbamoyl)-1H-indole-5-carboxylate]",4.74
2,"CCOC(=O)c1cc2cc(C(=O)NC(c3cccc(C(F)(F)F)c3)C(F)(F)F)[nH]c2cc1Cl (stereo not drawn) [Ethyl 6-chloro-2-({2,2,2-trifluoro-1-[3-(trifluoromethyl)phenyl]ethyl}carbamoyl)-1H-indole-5-carboxylate]",4.12
3,"CN(C(=O)/C=C/c1ccc(C#N)cc1)C(c1cccc(C(F)(F)F)c1)C(F)(F)F (stereo not drawn) [Ia-25, (2E)-3-(4-Cyanophenyl)-N-methyl-N-{2,2,2-trifluoro-1-[3-(trifluoromethyl)phenyl]-ethyl}acrylamide]",4.01
